In US11116757B2 (priority 2015, dated 2021) one finds IC50 data, which are given here for 78 molecules.

Chain of DCN1-UBC12 interaction (Q96GG9 60-248 limits assumed): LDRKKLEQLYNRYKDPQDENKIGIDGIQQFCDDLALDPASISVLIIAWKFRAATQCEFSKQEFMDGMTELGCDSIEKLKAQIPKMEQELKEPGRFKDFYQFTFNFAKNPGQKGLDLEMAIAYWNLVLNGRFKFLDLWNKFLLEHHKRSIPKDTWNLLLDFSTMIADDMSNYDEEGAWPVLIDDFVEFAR

The first experiment has as its target DCN1-UBC12 interaction (Homo sapiens (Human), UniProt Q96GG9). The experiment in a line: biochemical. Type of experiment: binding. To be noted: TR-FRET IC50.
With `CCCC(C)N1CCC(N(Cc2ccccc2)C(=O)Nc2ccc(F)c(C(F)(F)F)c2)CC1` (stereo not drawn) [A57], the half-maximal inhibitory concentration (IC50) was found to be 0.315 µM. The same measure, in the same setting: the figure for `CCCC(C)N1CCC(N(Cc2ccccc2)C(=O)Nc2ccc(C(C)(C)C)cc2)CC1` (stereo not drawn) [A100] is 1.41 µM.

The experiment is the same for the next values; noted with them: Table 4, commercial compounds; read-out: TR-FRET IC50.
`CSc1cccc(NC(=O)C2CCN(C(=O)c3ccccc3C)CC2)c1` [C5]: the IC50 was found to be 30.1 µM. Still for that read-out and setting: the figure for `CCc1cccc(C)c1NC(=O)C1CCN(C(=O)c2ccccc2Cl)CC1` [C37] is more than 67.6 µM; for `COc1cc(C(=O)N2CCC(C(=O)Nc3ccc(Br)cc3)CC2)cc(OC)c1OC` [C24] it is more than 67.6 µM. Same read-out and setting: the figure for `COc1ccc(C(=O)N2CCC(C(=O)Nc3cc(OC)ccc3OC)CC2)cc1` [C11] is more than 48.7 µM; for `CCc1ccccc1NC(=O)C1CCN(C(=O)c2ccc(F)cc2)CC1` [C67] it is more than 75.6 µM. Still for that read-out and setting: the figure for `COc1ccc(NC(=O)C2CCN(C(=O)c3ccccc3C)CC2)c(OC)c1` [C21] is more than 67.6 µM. On to `O=C(Nc1ccc(F)c(Cl)c1)C1CCN(C(=O)c2ccc(Cl)cc2)CC1` [C66], for which the concentration for half-maximal inhibition (IC50) was more than 75.6 µM. As to `O=C(Nc1ccc(F)cc1)C1CCN(C(=O)c2ccco2)CC1` [C31], the IC50 is more than 67.6 µM. On to `COc1ccc(C(=O)N2CCC(C(=O)Nc3ccc(F)c(Cl)c3)CC2)cc1` [C16], for which the IC50 was more than 67.6 µM.

Staying with this experiment, now noted: Table 6, commercial compounds; read-out: TR-FRET IC50.
As to `COCCN1CCN(C(=O)c2cnn(-c3nccc(-c4cccs4)n3)c2C2CC2)CC1` [E13], the IC50 was determined as 28.8 µM. Same read-out and setting: the figure for `CCN(CCN(C)C)C(=O)c1cnn(-c2ncc(C)c(-c3cccs3)n2)c1C1CC1` [E53] is more than 67.6 µM. The same measure, in the same setting: the figure for `CCN(CC)C(=O)c1cnn(-c2ncc(C)c(-c3cccs3)n2)c1C` [E57] is more than 67.6 µM. Same read-out and setting: the figure for `CCN(CC)CCN(CC)C(=O)c1cnn(-c2nccc(-c3cccs3)n2)c1C1CC1` [E2] is 4.53 µM. As for `CN1CCN(C(=O)c2cnn(-c3nccc(-c4cccs4)n3)c2C2CC2)CC1` [E33], the IC50 is more than 67.6 µM. Still for that read-out and setting: the figure for `CCN1CCN(C(=O)c2cnn(-c3ncc(C)c(-c4cccs4)n3)c2C2CC2)CC1` [E44] is more than 67.6 µM; for `CCN(CC)CCN(CC)C(=O)c1cnn(-c2nccc(-c3cccs3)n2)c1COC` [E22] it is 54.9 µM; for `CC(=O)N1CCN(C(=O)c2cnn(-c3ncc(C)c(-c4cccs4)n3)c2C2CC2)CC1` [E50] it is more than 67.6 µM. Same read-out and setting: the figure for `CCN1CCN(C(=O)c2cnn(-c3nccc(-c4cccs4)n3)c2C2CC2)CC1` [E14] is 29.9 µM; for `CCN(CC)CCN(CC)C(=O)c1cnn(-c2nccc(-c3cccs3)n2)c1C(C)C` [E5] it is 17.4 µM. The same measure, in the same setting: the figure for `CN(C)CC(C)(C)CNC(=O)c1cnn(-c2nccc(-c3cccs3)n2)c1C1CC1` [E37] is more than 67.6 µM.

Staying with this experiment, now noted: Table 7, commercial compounds; read-out: TR-FRET IC50.
For the molecule `Cc1cccc(C(=O)NC2C(=O)Nc3c(c(C)nn3C)C2c2ccc(F)c(Br)c2)c1` (stereo not drawn) [F17], the IC50 was more than 67.6 µM.

With `Cc1nn(C)c2c1C(c1ccc(Br)cc1)C(NC(=O)c1ccc(Cl)cc1)C(=O)N2` (stereo not drawn) [F12], the IC50 is more than 67.6 µM.

Still in this experiment, the particulars now being: read-out: TR-FRET IC50.
`CC(=O)N1CCC(N(Cc2ccco2)C(=O)Nc2ccc(Br)c(C)c2)CC1` [B18]: the IC50 was found to be 64.1 µM. The same measure, in the same setting: the figure for `O=C(Nc1cc(F)cc(C(F)(F)F)c1)N(Cc1ccccc1)C1CCN(C/C=C/c2ccccc2)CC1` [A143] is 4.27 µM; for `CCN1CCC(NC(=O)Nc2cc(Cl)ccc2Cl)CC1` [B54] it is more than 67.6 µM.

Take `CCCN1CCC(N(Cc2ccccc2)C(=O)Nc2cccc(C(F)(F)F)c2)CC1` [A85, 1-Benzyl-1-(1-Propylpiperidin-4-yl)-3-(3-(Trifluoromethyl)Phenyl)Urea]: the IC50 turned out to be 0.98 µM.

As to `O=C(NCC(=O)N1CCC(c2nc3ccccc3s2)CC1)c1cccc(F)c1` [D23], the half-maximal inhibitory concentration (IC50) is more than 67.6 µM. The same measure, in the same setting: then “1-Benzyl-1-(1-Isopentylpiperidin-4-yl)-3-(3-(Trifluoromethyl)Phenyl)Urea [A90]”, with 1.13 µM; and “1-Benzyl-1-(1-(3,3-Dimethylbutyl)Piperidin-4-yl)-3-(3-(Trifluoromethyl)Phenyl)Urea [A298]”, with more than 85 µM; and `CCCN1CCC(N(Cc2ccco2)C(=O)Nc2cccc(C(F)(F)F)c2)CC1` [A77, 1-(Furan-2-Ylmethyl)-1-(1-Propylpiperidin-4-yl)-3-(3-(Trifluoromethyl)Phenyl)Urea], with 0.798 µM. The same measure, in the same setting: the figure for `CCN1CCC(N(Cc2ccco2)C(=O)Nc2ccc(C)c(F)c2)CC1` [B11] is 23.8 µM; for `CCN1CCC(N(Cc2ccco2)C(=O)Nc2ccc(Br)c(C)c2)CC1` [B2] it is 3 µM. On the same count and under the same terms, the figure for `CCCCN1CCC(N(Cc2ccccc2)C(=O)Nc2cc(F)cc(F)c2)CC1` [A142] is 4.26 µM. As for `Cn1ccc2cc(CN3CCC(N(Cc4ccccc4)C(=O)Nc4cc(F)cc(C(F)(F)F)c4)CC3)ccc21` [A205], the IC50 was more than 20.8 µM. Same read-out and setting: then `CCCC(C)N1CCC(N(Cc2ccccc2)C(=O)Nc2ccc(Br)cc2C)CC1` (stereo not drawn) [A165], with 9.43 µM; and `CCCC(C)N1CCC(N(Cc2ccccc2)C(=O)Nc2cc(F)cc(S(F)(F)(F)(F)F)c2)CC1` (stereo not drawn) [A48], with 0.26 µM; and `COCCn1ccc(NC(=O)NC2CCN(Cc3ccccc3)CC2)n1` [B35], with more than 55.9 µM. Same read-out and setting: then `O=C(Nc1cc(F)cc(C(F)(F)F)c1)N(Cc1ccccc1)C1CCN(Cc2cncnc2)CC1` [A210], with more than 21.7 µM. Same read-out and setting: the figure for `CC1CC(NC(=O)Nc2cnn(C)c2)CCN1Cc1ccccc1` (stereo not drawn) [B42] is more than 64.4 µM. For the molecule `CCCC(C)N1CCC(N(Cc2ccccc2)C(=O)Nc2cc(Br)ccc2Cl)CC1` (stereo not drawn) [A267], the IC50 is more than 66.9 µM.

Take `CSc1cccc(NC(=O)NC2CCN(Cc3ccccc3)CC2)c1` [B44]: the IC50 is more than 64.5 µM. Turning to `O=C(Nc1cc(F)cc(C(F)(F)F)c1)N(Cc1ccccc1)C1CCN(Cc2cc(F)c(F)c(F)c2)CC1` [A206], the half-maximal inhibitory concentration (IC50) is more than 20.9 µM. Regarding `O=C(Nc1cccc(C(F)(F)F)c1)NC1CCN(Cc2ccc(Cl)cc2)CC1` [A186, 1-(1-(4-Chlorobenzyl)Piperidin-4-yl)-3-(3-(Trifluoromethyl)Phenyl)Urea], the IC50 was 33.4 µM. Turning to “1-Benzyl-1-(1-(Propylsulfonyl)Piperidin-4-yl)-3-(3-(Trifluoromethyl)Phenyl)Urea [A79]”, the IC50 amounted to 0.81 µM. Still for that read-out and setting: then `CC(C1CCC1)N1CCC(N(Cc2ccccc2)C(=O)Nc2cc(F)cc(C(F)(F)F)c2)CC1` (stereo not drawn) [A118], with 0.143 µM; and `O=C(Nc1cc(F)cc(C(F)(F)F)c1)N(Cc1ccccc1)C1CCN(Cc2ncc[nH]2)CC1` [A225], with more than 26.1 µM; and `Cc1ccc(NC(=O)NC2CCN(Cc3ccccc3)CC2)cc1C` [B63], with more than 67.6 µM. On the same count and under the same terms, the figure for `CCCC(C)N1CCC(N(Cc2ccccc2)C(=O)Nc2ccc(Br)cc2)CC1` (stereo not drawn) [A5] is 0.0559 µM; for “1-(1-Acryloylpiperidin-4-yl)-1-Benzyl-3-(3-(Trifluoromethyl)Phenyl)Urea [A65]” it is 0.446 µM; for `O=C(c1cccc(Br)c1)N1CCC(c2nc3cc(Cl)ccc3s2)CC1` [D18] it is more than 60.8 µM.

Consider `C=CS(=O)(=O)NCc1ccccc1CN(C(=O)Nc1cccc(C(F)(F)F)c1)C1CCN(C(C)CCC)CC1` (stereo not drawn) [A2], for which the IC50 came to 0.0068 µM. Turning to `CCCC(C)N1CCC(N(Cc2cccc(NC(=O)CCl)c2)C(=O)Nc2cccc(C(F)(F)F)c2)CC1` (stereo not drawn) [drawing 842], the IC50 came to 0.095 µM.

Turning to `CCCN1CCC(NC(=O)Nc2ccccc2Cl)CC1` [B51], the IC50 is more than 67.6 µM. Take `C=CS(=O)(=O)NCCN(C(=O)Nc1cccc(C(F)(F)F)c1)C1CCN(C(C)CCC)CC1` (stereo not drawn) [drawing 839]: the IC50 was more than 41 µM. Same read-out and setting: then `O=C(Nc1ccn(Cc2ccccn2)n1)NC1CCN(Cc2ccccc2)CC1` [B33], with more than 55.4 µM. For the molecule `CC1CN(Cc2ccccc2)CC(C)C1NC(=O)Nc1nccs1` (stereo not drawn) [B9], the IC50 turned out to be 18.6 µM.

As to `CC(=O)N1CCC(N(Cc2ccco2)C(=O)Nc2ccccc2Br)CC1` [B71], the half-inhibitory concentration (IC50) was more than 67.6 µM.

With `Cn1ccnc1CN1CCC(N(Cc2ccccc2)C(=O)Nc2cc(F)cc(C(F)(F)F)c2)CC1` [A229], the IC50 was more than 28.6 µM. `CC1CN(Cc2ccccc2)CCC1N(C)C(=O)Nc1cn[nH]c1` (stereo not drawn) [B24]: the IC50 is more than 15.2 µM. For the molecule `CCN1CCC(N(Cc2ccco2)C(=O)Nc2cc(Cl)ccc2C)CC1` [B78], the IC50 was more than 67.6 µM. On the same count and under the same terms, the figure for `O=C(Nc1ccc2c(c1)C(=O)NCC2)NC1CCN(Cc2ccccc2)CC1` [B122] is more than 84.8 µM; for `CCCC(C)N1CCC(N(Cc2ccccc2)C(=O)Nc2cccc(F)c2F)CC1` (stereo not drawn) [A162] it is 8.22 µM. On the same count and under the same terms, the figure for `O=C(Nc1cccc(C(F)(F)F)c1)N(Cc1ccccc1)C1CCNCC1` [A261, 1-Benzyl-1-(Piperidin-4-yl)-3-(3-(Trifluoromethyl)Phenyl)Urea] is more than 63.3 µM; for `CCCC(C)N1CCC(N(Cc2ccccc2)C(=O)Nc2ccc(Cl)cc2C(=O)OC)CC1` (stereo not drawn) [A266] it is more than 66.2 µM; for `CCCC(C)N1CCC(N(Cc2ccccc2)C(=O)Nc2ccc(NC(C)=O)cc2)CC1` (stereo not drawn) [A291] it is more than 77.1 µM. The same measure, in the same setting: then `O=C(c1ccc(F)cc1Cl)N1CCC(c2nc3ccccc3s2)CC1` [D5], with 18.2 µM. For the molecule `CCCC(C)N1CCC(N(Cc2ccccc2)C(=O)Nc2cc(F)ccc2F)CC1` (stereo not drawn) [A281], the IC50 was more than 70.6 µM. As to `CC(c1ccccn1)N1CCC(N(Cc2ccccc2)C(=O)Nc2cc(F)cc(C(F)(F)F)c2)CC1` (stereo not drawn) [A145], the IC50 came out at 4.57 µM. Still for that read-out and setting: then `CCCC(C)N1CCC(N(Cc2ccccc2)C(=O)Nc2cccc([N+](=O)[O-])c2C)CC1` (stereo not drawn) [A161], with 7.94 µM; and `CCCC(C)N1CCC(N(Cc2ccccc2NC(=O)CCl)C(=O)Nc2cccc(C(F)(F)F)c2)CC1` (stereo not drawn) [drawing 843], with 0.208 µM. On the same count and under the same terms, then `Cc1cccc(NC(=O)NC2CCN(C(=O)c3ccccc3)CC2)c1` [B111], with more than 73.2 µM; and `CCCCN(C(=O)Nc1ccc(Cl)c(Cl)c1)C1CCN(C(C)CCC)CC1` (stereo not drawn) [A20], with 0.116 µM. On the same count and under the same terms, then `O=C(Nc1cc(F)cc(C(F)(F)F)c1)N(Cc1ccccc1)C1CCN(Cc2nc3ccccc3s2)CC1` [A222], with more than 25.2 µM. Consider `CCCN1CCC(NC(=O)Nc2cccc(Cl)c2)CC1` [B117], for which the IC50 is more than 77.1 µM.

Consider `O=C(Nc1cc(F)cc(C(F)(F)F)c1)N(Cc1ccccc1)C1CCN(Cc2ccncc2)CC1` [A228], for which the IC50 was more than 28.3 µM. Still for that read-out and setting: the figure for `CCCCN1CCC(N(Cc2ccccc2)C(=O)Nc2cccc(C(F)(F)F)c2F)CC1` [A70] is 0.583 µM.
